Measured values as given in patent US10961198B2, “Farnesoid X receptor agonists and uses thereof” (Metacrine, Inc., priority 2017, dated 2021).

Target: hFXR (Homo sapiens (Human), UniProt Q96RI1)
Assay: In Vitro FXR Assay (TK)
Format: cell-based
Conditions: CV-1 cells transfected with hFXR, hRXR, TK-ECRE-luc and pCMX-YFP; incubated 18 hrs; luminescence; maximum efficacy <25% of the Fexarmine control classified as '+'
Description: Example B-1: In Vitro FXR Assay (TK)
CV-1 cells were seeded at a density of 2,000,000 cells in a T175 flask with DMEM+10% charcoal double-stripped FBS and incubated at 37° C. in 5% CO2 for 18 h (O/N).
After 18 h of incubation, the medium in the T175 flask was changed with fresh DMEM+10% charcoal super-stripped serum. In a polypropylene tube, 2500 μL OptiMEM (Life Technologies, Cat #31985-062) was combined with expression plasmids for hFXR, hRXR, TK-ECRE-luc and pCMX-YFP. The tube was then briefly vortexed and incubated at room temperature for 5 minutes. Transfection reagent (X-tremeGENE HP from Roche, Cat #06 366 236 001) was added to the OptiMEM/plasmid mixture vortexed and incubated at room temperature for 20 minutes. Following incubation, the transfection reagent/DNA mixture complex was added to cells in the T175 flask and the cells were incubated at 37° C. in 5% CO2 for 18 h (O/N).
Compounds were serially diluted in DMSO and added to transfected CV-1 cells. The cells were then incubated for 18 hrs. The next day cells were lysed and examined for luminescence.

Sequence of hFXR (Q96RI1 whole entry): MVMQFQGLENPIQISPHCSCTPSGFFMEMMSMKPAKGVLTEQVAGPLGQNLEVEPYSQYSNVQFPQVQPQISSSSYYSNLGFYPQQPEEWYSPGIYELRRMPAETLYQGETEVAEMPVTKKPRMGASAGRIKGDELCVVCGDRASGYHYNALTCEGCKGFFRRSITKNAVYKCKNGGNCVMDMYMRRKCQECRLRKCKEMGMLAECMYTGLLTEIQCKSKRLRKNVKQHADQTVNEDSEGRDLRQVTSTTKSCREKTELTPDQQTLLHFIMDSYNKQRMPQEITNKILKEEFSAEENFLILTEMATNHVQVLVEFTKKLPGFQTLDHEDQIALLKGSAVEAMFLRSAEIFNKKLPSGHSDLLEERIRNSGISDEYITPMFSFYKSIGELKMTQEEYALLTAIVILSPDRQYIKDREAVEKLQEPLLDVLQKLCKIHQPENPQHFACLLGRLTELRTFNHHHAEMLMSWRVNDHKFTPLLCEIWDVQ
Sequence of hFXR (P19793 whole entry partner): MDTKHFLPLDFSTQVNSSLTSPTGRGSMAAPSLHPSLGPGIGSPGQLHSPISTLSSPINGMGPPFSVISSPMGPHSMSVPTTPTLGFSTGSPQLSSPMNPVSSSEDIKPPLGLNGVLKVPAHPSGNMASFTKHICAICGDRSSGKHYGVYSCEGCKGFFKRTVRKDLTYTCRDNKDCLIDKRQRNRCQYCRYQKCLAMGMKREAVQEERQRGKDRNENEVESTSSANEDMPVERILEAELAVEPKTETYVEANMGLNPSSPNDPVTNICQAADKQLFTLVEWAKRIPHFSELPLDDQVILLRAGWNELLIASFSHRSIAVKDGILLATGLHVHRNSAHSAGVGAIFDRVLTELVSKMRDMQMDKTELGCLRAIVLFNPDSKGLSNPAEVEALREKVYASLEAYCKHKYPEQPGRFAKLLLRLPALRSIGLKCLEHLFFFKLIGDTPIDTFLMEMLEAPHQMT

Structure (SMILES) | EC50 [nM]
COc1ccc([C@H]2CC[C@H](CN(c3cccc(C#Cc4cc[nH]n4)c3)C(=O)[C@H]3CC[C@H](O)CC3)CC2)cc1C [Compound 4.03, trans-N-(3-((1H-Pyrazol-3-yl)ethynyl)phenyl)-4-hydroxy-N-((trans-4-(4-methoxy-3-methylphenyl)cyclohexyl)methyl)cyclohexanecarboxamide] | ≤ 250
COc1ccc([C@H]2CC[C@H](CN(c3cc(-c4cnn(C(C)C)c4)ccn3)C(=O)[C@H]3CC[C@H](O)CC3)CC2)cc1C#N [Compound 5.14, trans-N-((trans-4-(3-Cyano-4-methoxyphenyl)cyclohexyl)methyl)-4-hydroxy-N-(4-(1-isopropyl-1H-pyrazol-4-yl)pyridin-2-yl)cyclohexanecarboxamide] | ≤ 250
COc1ccc([C@H]2CC[C@H](CN(c3cccc(-c4cnn(C5CC5)c4)c3)C(=O)[C@H]3CC[C@H](O)CC3)CC2)nc1C [Compound 5.04, trans-N-(3-(1-cyclopropyl-1H-pyrazol-4-yl)phenyl)-4-hydroxy-N-((trans-4-(5-methoxy-6-methylpyridin-2-yl)cyclohexyl)methyl)cyclohexanecarboxamide] | ≤ 250
COc1ccc(C23CCC(CN(c4cccc(-c5cnn(C(C)C)c5)c4)C(=O)[C@H]4CC[C@H](O)CC4)(CC2)CC3)cc1C [Compound 6.02, trans-4-Hydroxy-N-(3-(1-isopropyl-1H-pyrazol-4-yl)phenyl)-N-((4-(4-methoxy-3-methylphenyl)bicyclo[2.2.2]octan-1-yl)methyl)cyclohexanecarboxamide] | ≤ 250
COc1ccc([C@H]2CC[C@H](CN(c3cccc(-c4cnn(C(C)(C)C)c4)c3)C(=O)[C@H]3CC[C@H](O)CC3)CC2)nc1C [Compound 5.15, trans-N-(3-(1-(tert-Butyl)-1H-pyrazol-4-yl)phenyl)-4-hydroxy-N-((trans-4-(5-methoxy-6-methylpyridin-2-yl)cyclohexyl)methyl)cyclohexanecarboxamide] | ≤ 250
COc1ccc([C@H]2CC[C@H](CN(c3cccc(-c4cnn(C(C)C)c4)c3)C(=O)[C@H]3CC[C@H](O)CC3)CC2)cc1C [Compound 3.02, trans-4-Hydroxy-N-(3-(1-isopropyl-1H-pyrazol-4-yl)phenyl)-N-((trans-4-(4-methoxy-3-methylphenyl)cyclohexyl)methyl)cyclohexanecarboxamide] | ≤ 250
COc1ccc([C@H]2CC[C@H](CN(c3cccc(-c4cnn(CCF)c4)c3)C(=O)[C@H]3CC[C@H](O)CC3)CC2)cc1C [Compound 3.12, trans-N-(3-(1-(2-Fluoroethyl)-1H-pyrazol-4-yl)phenyl)-4-hydroxy-N-((trans-4-(4-methoxy-3-methylphenyl)cyclohexyl)methyl)cyclohexanecarboxamide] | ≤ 250
CCC(C)n1cc(-c2cccc(N(C[C@H]3CC[C@H](c4ccc(OC)c(C)c4)CC3)C(=O)[C@H]3CC[C@H](O)CC3)c2)cn1 (stereo partly drawn) [Compound 3.13, trans-N-(3-(1-(sec-Butyl)-1H-pyrazol-4-yl)phenyl)-4-hydroxy-N-((trans-4-(4-methoxy-3-methylphenyl)cyclohexyl)methyl)cyclohexanecarboxamide] | ≤ 250
COc1ccc(C2CCC(CN(c3cccc(-c4cnn(C5CC5)c4)c3)C(=O)[C@H]3CC[C@@H](O)CC3)CC2)cc1C (stereo partly drawn) [Compound 5.25, cis-N-(3-(1-Cyclopropyl-1H-pyrazol-4-yl)phenyl)-4-hydroxy-N-((4-(4-methoxy-3-methylphenyl)cyclohexyl)methyl)cyclohexanecarboxamide] | ≤ 250
COc1ccc([C@H]2CC[C@H](CN(c3cccc(C#Cc4ccn(C)n4)c3)C(=O)[C@H]3CC[C@H](O)CC3)CC2)cc1C [Compound 4.02, trans-4-Hydroxy-N-((trans-4-(4-methoxy-3-methylphenyl)cyclohexyl)methyl)-N-(3-((1-methyl-1H-pyrazol-3-yl)ethynyl)phenyl)cyclohexanecarboxamide] | ≤ 250
COc1ccc([C@H]2CC[C@H](CN(c3cccc(-c4cnn(C)c4)c3)C(=O)[C@H]3CC[C@H](O)CC3)CC2)cc1C [Compound 2.01, trans-4-Hydroxy-N-((trans-4-(4-methoxy-3-methylphenyl)cyclohexyl)methyl)-N-(3-(1-methyl-1H-pyrazol-4-yl)phenyl)cyclohexanecarboxamide] | ≤ 250
COc1ccc([C@H]2CC[C@H](CN(c3cccc(-c4cnn(C5CCOCC5)c4)c3)C(=O)[C@H]3CC[C@H](O)CC3)CC2)cc1C [Compound 3.10, trans-4-Hydroxy-N-((trans-4-(4-methoxy-3-methylphenyl)cyclohexyl)methyl)-N-(3-(1-(tetrahydro-2H-pyran-4-yl)-1H-pyrazol-4-yl)phenyl)cyclohexanecarboxamide] | ≤ 250
CCn1cc(-c2cccc(N(C[C@H]3CC[C@H](c4ccc(OC)c(C#N)c4)CC3)C(=O)[C@H]3CC[C@H](O)CC3)c2)cn1 [Compound 2, trans-N-((trans-4-(3-Cyano-4-methoxyphenyl)cyclohexyl)methyl)-N-(3-(1-ethyl-1H-pyrazol-4-yl)phenyl)-4-hydroxycyclohexanecarboxamide] | ≤ 250
COc1ccc([C@H]2CC[C@H](CN(c3cccc(-c4cnn(C(C)C)c4)c3)C(=O)[C@H]3CC[C@H](O)CC3)CC2)nc1C [Compound 5.07, trans-4-Hydroxy-N-(3-(1-isopropyl-1H-pyrazol-4-yl)phenyl)-N-((trans-4-(5-methoxy-6-methylpyridin-2-yl)cyclohexyl)methyl)cyclohexanecarboxamide] | ≤ 250
COc1ccc([C@H]2CC[C@H](CN(c3cccc(-c4cnn(C5CC5)c4)c3)C(=O)[C@H]3CC[C@H](O)CC3)CC2)cc1C#N [Compound 2.04, trans-N-((trans-4-(3-Cyano-4-methoxyphenyl)cyclohexyl)methyl)-N-(3-(1-cyclopropyl-1H-pyrazol-4-yl)phenyl)-4-hydroxycyclohexanecarboxamide] | ≤ 250
CN(C)c1ccc([C@H]2CC[C@H](CN(c3cccc(-c4cnn(C5CC5)c4)c3)C(=O)[C@H]3CC[C@H](O)CC3)CC2)cn1 [Compound 5.02, trans-N-(3-(1-Cyclopropyl-1H-pyrazol-4-yl)phenyl)-N-((trans-4-(6-(dimethylamino)pyridin-3-yl)cyclohexyl)methyl)-4-hydroxycyclohexanecarboxamide] | ≤ 250
O=C([C@H]1CC[C@H](O)CC1)N(C[C@H]1CC[C@H](c2ccc3c(c2)OCO3)CC1)c1cccc(-c2cnn(C3CC3)c2)c1 [Compound 5.06, trans-N-((trans-4-(Benzo[d][1,3]dioxol-5-yl)cyclohexyl)methyl)-N-(3-(1-cyclopropyl-1H-pyrazol-4-yl)phenyl)-4-hydroxycyclohexanecarboxamide] | ≤ 250
COc1ccc([C@H]2CC[C@H](CN(c3cccc(-c4cnn(C(C)C)c4)c3)C(=O)[C@H]3CC[C@@](C)(O)CC3)CC2)cc1C [Compound 5.28, (1s, 4s)-4-Hydroxy-N-(3-(1-isopropyl-1H-pyrazol-4-yl)phenyl)-N-((trans-4-(4-methoxy-3-methylphenyl)cyclohexyl)methyl)-4-methylcyclohexanecarboxamide] | ≤ 250
COc1cnc([C@H]2CC[C@H](CN(c3cccc(-c4cnn(C5CC5)c4)c3)C(=O)[C@H]3CC[C@H](O)CC3)CC2)cc1C [Compound 5.18, trans-N-(3-(1-Cyclopropyl-1H-pyrazol-4-yl)phenyl)-4-hydroxy-N-((trans-4-(5-methoxy-4-methylpyridin-2-yl)cyclohexyl)methyl)cyclohexanecarboxamide] | 250 to 1000
